Series [1] is described as follows: Determination of the moisture stability of polymorphic forms of sofosbuvir and amorphous sofosbuvir (humidity chamber, XRPD before and after). The note with it: for XRPD analysis, sample after storage at 40° C./75% RH for 18 h / Visual aspect, sample after storage at 40° C./75% RH for 18 h: after 18 h at 40° C./75% RH in humidity chamber; for Visual aspect, sample after storage at 40° C./75% RH for 18 h: footnote: gel/gum = sample deliquesced; for Visual aspect, sample before storage at 40° C./75% RH / XRPD analysis, sample before storage at 40° C./75% RH: 30 mg sample. Format: physicochemical. As for the experimental part: Even more precisely, the moisture stability of the polymorphic form is defined as the amount in mg of the polymorphic form which is present after an exposure of an amount of 30 mg of the polymorphic form to a relative humidity of (75±1) % at a temperature of (40±1)° C. for an exposure time of (18±1) hours in a humidity chamber, relative to the amount of 30 mg of the polymorphic form before said exposure, as determined via X-ray powder diffraction pattern analysis at a temperature in the range of from 15 to 25° C. with Cu-Kalpha1,2 radiation having a wavelength of 0.15419 nm of the polymorphic form before the exposure and via said X-ray powder diffraction pattern analysis after the exposure.
30 mg of a given polymorphic form of sofosbuvir or of amorphous sofosbuvir prepared according to Reference Examples 1 to 4 were analyzed via XRPD as described in Reference Example 6. Then, these polymorphic forms of sofosbuvir or of amorphous sofosbuvir were exposed to an atmosphere having a relative humidity (RH) of 75% and a temperature of 40° C. for 18 hours in a humidity chamber and analyzed via XRPD as described in Reference Example 6.
XRPD patterns were obtained with an X'Pert PRO diffractometer (PANalytical, Almelo, The Netherlands) equipped with a theta/theta coupled goniometer in transmission geometry, pro-grammable XYZ stage with well plate holder, Cu-Kalpha1,2 radiation source (wavelength 0.15419 nm) with a focusing mirror, a 0.5° divergence slit, a 0.02° soller slit collimator and a 0.5° anti-scattering slit on the incident beam side, a 2 mm anti-scattering slit, a 0.02° soller slit collimator, a Ni-filter and a solid state PIXcel detector on the diffracted beam side. The diffractogram was recorded at room temperature at a tube voltage of 40 kV, tube current of 40 mA, applying a stepsize of 0.013° 2-theta with 40 sec per step in the angular range of 2° to 40° 2-theta. A typical precision of the 2-theta values is in the range of ±0.2° 2-theta. Thus, a diffraction peak that appears for example at 9.4° 2-theta can appear between 9.2 and 9.6° 2-theta on most X-ray diffractometers under standard conditions.

The conditions of series [2]: 40° C., relative humidity 75%; cited from earlier work.

With `CC(C)OC(=O)[C@H](C)N[P@](=O)(OC[C@H]1O[C@@H](n2ccc(=O)[nH]c2=O)[C@](C)(F)[C@@H]1O)Oc1ccccc1` [Form 1], in series [1], the “XRPD analysis, sample after storage at 40° C./75% RH for 18 h” value (shortened to “XRPD analysis … at 40° C./75% RH for 18 h”) is on record as “amorphous”; the “Visual aspect, sample after storage at 40° C./75% RH for 18 h” value (from here on “Visual aspect … at 40° C./75% RH for 18 h”) was “gel/gum*^)”; the “Visual aspect, sample before storage at 40° C./75% RH” value is “white powder”; the “XRPD analysis, sample before storage at 40° C./75% RH” value is listed as “crystalline, Form 1”.

For the molecule `CC(C)OC(=O)[C@H](C)N[P@](=O)(OC[C@H]1O[C@@H](n2ccc(=O)[nH]c2=O)[C@](C)(F)[C@@H]1O)Oc1ccccc1` [sofosbuvir, (S)-isopropyl 2-(((S)-(((2R,3R,4R,5R)-5-(2,4-dioxo-3,4-dihydropyrimidin-1(2H)-yl)-4-fluoro-3-hydroxy-4-methyltetrahydrofuran-2-yl)methoxy)(phenoxy)phosphoryl)-amino)propanoate], the “behaviour under stress conditions (deliquescence)” value in series [2] is given as “deliquesces after a few hours”.

`CC(C)OC(=O)[C@H](C)N[P@](=O)(OC[C@H]1O[C@@H](n2ccc(=O)[nH]c2=O)[C@](C)(F)[C@@H]1O)Oc1ccccc1` [Form 7]: in series [1], the “XRPD analysis … at 40° C./75% RH for 18 h” value is recorded as “crystalline, Form 7”; the “Visual aspect … at 40° C./75% RH for 18 h” value is “white powder”; the “Visual aspect, sample before storage at 40° C./75% RH” value is “white powder”; the “XRPD analysis, sample before storage at 40° C./75% RH” value is on record as “crystalline, Form 7”.

Turning to `CC(C)OC(=O)[C@H](C)N[P@](=O)(OC[C@H]1O[C@@H](n2ccc(=O)[nH]c2=O)[C@](C)(F)[C@@H]1O)Oc1ccccc1` [Form 6], in series [1], the “XRPD analysis … at 40° C./75% RH for 18 h” value is “crystalline, Form 6”; the “Visual aspect … at 40° C./75% RH for 18 h” value is “white powder”; the “Visual aspect, sample before storage at 40° C./75% RH” value was “white powder”; the “XRPD analysis, sample before storage at 40° C./75% RH” value was “crystalline, Form 6”.

For `CC(C)OC(=O)[C@H](C)N[P@](=O)(OC[C@H]1O[C@@H](n2ccc(=O)[nH]c2=O)[C@](C)(F)[C@@H]1O)Oc1ccccc1` [Amorphous], in series [1], the “XRPD analysis … at 40° C./75% RH for 18 h” value is “amorphous”; the “Visual aspect … at 40° C./75% RH for 18 h” value is on record as “gel/gum*^)”; the “Visual aspect, sample before storage at 40° C./75% RH” value is given as “white powder”; the “XRPD analysis, sample before storage at 40° C./75% RH” value is recorded as “amorphous”.

The values are drawn from patent US20170296570A1, “High Drug Load Tablets Comprising Sofosbuvir” (Sandoz AG, priority 2014, published 2017).
